This note sets out measurements from patent US12281084B2, “Acetyl-CoA synthetase 2 (ACSS2) inhibitors and methods using same” (The Wistar Institute, priority 2019, dated 2025).

This test has as its target T1, recombinant human ACSS2 (Homo sapiens, UniProt Q9NR19).
T1 construct: purchased Origene TP304260
The test can be described thus: ACSS2 biochemical assay (Transcreener AMP assay). As to conditions: in vitro biochemical TranScreener assay; mean±S.D., n≥3 (FIG. 1C). The procedure:
ACSS2 enzyme activity was measured using the TRANSCREENER® TRF AMP/GMP assay (Bellbrook Labs). Recombinant ACSS2 was purchased from Origene. The assay was performed in white, opaque, low volume 384 well plates. Test compounds were diluted in 100% DMSO and then 100 nL of each dilution was transferred using the Janus MDT Nanohead to assay plates containing 3 μL ACSS2 (2.5 nM) in assay buffer (30 mM HEPES, pH 7.4, 140 mM NaCl, 2 mM MgCl2, 5 mM sodium acetate, 2 mM DTT, 0.005% Brij35). Three microliters of substrate mix containing 100 μM ATP and 10 μM coenzyme A was added to the plates followed by a 120 min incubation. The final concentrations of enzyme and substrates in the reaction mix was 1.25 nM ACSS2, 50 μM ATP, and 5 μM coenzyme A. After incubation, 3 μL of terbium conjugated AMP antibody and AMP tracer was added to the plates according to the methods described by BellBrook Labs. After an additional 30 min, the HTRF signal was measured using an Envision Plate reader. Data were normalized to % inhibition, where 100% inhibition is equal to the counts obtained in the absence of ACSS2, and 0% inhibition is equal to the counts obtained in the complete reaction including a DMSO control.
A robust biochemical screening assay was set up for testing compounds as potential ACSS2 inhibitors. […]

T1 sequence (Q9NR19 whole entry): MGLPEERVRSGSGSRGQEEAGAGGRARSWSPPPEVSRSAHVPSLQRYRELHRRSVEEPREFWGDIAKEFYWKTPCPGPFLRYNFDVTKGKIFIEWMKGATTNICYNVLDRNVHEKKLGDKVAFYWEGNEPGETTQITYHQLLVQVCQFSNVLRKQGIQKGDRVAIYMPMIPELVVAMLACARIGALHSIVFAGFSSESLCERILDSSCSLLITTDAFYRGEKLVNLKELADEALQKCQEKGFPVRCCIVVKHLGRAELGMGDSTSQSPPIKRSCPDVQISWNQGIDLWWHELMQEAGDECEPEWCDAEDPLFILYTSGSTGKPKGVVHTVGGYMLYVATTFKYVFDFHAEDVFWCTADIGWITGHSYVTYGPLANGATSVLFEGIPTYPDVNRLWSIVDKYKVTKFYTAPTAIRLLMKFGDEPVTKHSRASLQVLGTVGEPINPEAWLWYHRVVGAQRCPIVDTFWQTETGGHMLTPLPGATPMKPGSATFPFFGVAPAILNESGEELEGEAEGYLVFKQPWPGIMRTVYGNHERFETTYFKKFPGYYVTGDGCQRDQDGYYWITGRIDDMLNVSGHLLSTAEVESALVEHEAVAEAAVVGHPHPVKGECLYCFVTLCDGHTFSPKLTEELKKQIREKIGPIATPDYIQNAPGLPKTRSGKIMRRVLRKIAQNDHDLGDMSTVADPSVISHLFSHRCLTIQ

Regarding `COCCNC(=O)Nc1ccc2nc(-c3cccs3)c(-c3cccs3)nc2c1` [VY-3-249, 1-(2,3-di(thiophen-2-yl)quinoxalin-6-yl)-3-(2-methoxyethyl)urea], the IC50 – broadly, the concentration needed to halve the response being measured – amounted to 1210 ± 128 nM.
